# Measurements: patent publication US20230279025A1, “KRAS G12D INHIBITORS” (Mirati Therapeutics, Inc., priority 2020, published 2023)
# Biological target: KRas G12D (Homo sapiens (Human), UniProt P01116, G12D)
# Assay: KRas G12D Binding Assay (TR-FRET displacement of Cy5 labelled tracer)
# Details: GDP-loaded KRAS G12D (amino acids 1:169), 60 minute incubation at 22° C.
# Protocol: After a 60 minute incubation at 22° C., the reaction was measured using a PerkinElmer EnVision multimode plate reader via TR-FRET dual wavelength detection, and the percent of control (POC) calculated using a ratiometric emission factor. […] The POC values were fit to a 4-parameter logistic curve and the IC50 value was determined as the concentration where the curve crosses 50 POC.
# ND stands for “not determined.”
# KRas G12D, sequence (P01116 other isoform, or with tags, fused parts or gaps G12D): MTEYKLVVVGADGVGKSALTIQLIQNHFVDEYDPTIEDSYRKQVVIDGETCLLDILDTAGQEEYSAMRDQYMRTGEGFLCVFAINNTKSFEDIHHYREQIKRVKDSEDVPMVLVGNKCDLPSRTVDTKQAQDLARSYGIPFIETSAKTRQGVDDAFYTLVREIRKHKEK
row,Compound,IC50
1,"O=C(OC[C@H]1CC[C@@]2(COc3nc(N4CC5CCC(C4)N5)c4cnc(-c5cccc6cccc(Cl)c56)c(F)c4n3)CCCN12)N1CCCC1 [Example 443, ((3R,7aR)-7a-(((4-(3,8-diazabicyclo[3.2.1]octan-3-yl)-7-(8-chloronaphthalen-1-yl)-8-fluoropyrido[4,3-d]pyrimidin-2-yl)oxy)methyl)hexahydro-1H-pyrrolizin-3-yl)methyl pyrrolidine-1-carboxylate]",3.2 nM
2,"O=C(OC[C@H]1CC[C@@]2(COc3nc(N4CC5CCC(C4)N5)c4cnc(-c5cccc6cccc(Cl)c56)c(F)c4n3)CCCN12)N1CCCCC1 [Example 444, ((3R,7aR)-7a-(((4-(3,8-diazabicyclo[3.2.1]octan-3-yl)-7-(8-chloronaphthalen-1-yl)-8-fluoropyrido[4,3-d]pyrimidin-2-yl)oxy)methyl)hexahydro-1H-pyrrolizin-3-yl)methyl piperidine-1-carboxylate]",5.5 nM
3,"O=C(OC[C@H]1CC[C@@]2(COc3nc(N4CC5CCC(C4)N5)c4cnc(-c5cccc6cccc(Cl)c56)c(F)c4n3)CCCN12)N1CCOCC1 [Example 445, ((3R,7aR)-7a-(((4-(3,8-diazabicyclo[3.2.1]octan-3-yl)-7-(8-chloronaphthalen-1-yl)-8-fluoropyrido[4,3-d]pyrimidin-2-yl)oxy)methyl)hexahydro-1H-pyrrolizin-3-yl)methyl morpholine-4-carboxylate]",2.7 nM
4,"Cn1ccc2cccc(-c3ncc4c(N5C[C@H]6CC[C@@H](C5)N6)nc(OCC56CCCN5CCC6)nc4c3F)c21 [Example 446, 4-((1R,5S)-3,8-diazabicyclo[3.2.1]octan-3-yl)-8-fluoro-7-(1-methyl-1H-indol-7-yl)-2-((tetrahydro-1H-pyrrolizin-7a(5H)-yl)methoxy)pyrido[4,3-d]pyrimidine]",357 nM
5,"CCCc1ccccc1-c1ncc2c(N3C[C@H]4CC[C@@H](C3)N4)nc(OCC34CCCN3CCC4)nc2c1F [Example 447, 4-((1R,5S)-3,8-diazabicyclo[3.2.1]octan-3-yl)-8-fluoro-7-(2-propylphenyl)-2-((tetrahydro-1H-pyrrolizin-7a-(5H)-yl)methoxy)pyrido[4,3-d]pyrimidine]",297 nM
6,"Fc1c(-c2ccccc2C2CC2)ncc2c(N3C[C@H]4CC[C@@H](C3)N4)nc(OC[C@@]34CCCN3C[C@H](F)C4)nc12 [Example 448, 4-((1R,5S)-3,8-diazabicyclo[3.2.1]octan-3-yl)-7-(2-cyclopropylphenyl)-8-fluoro-2-(((2R,7aS)-2-fluorohexahydro-1H-pyrrolizin-7a-yl)methoxy)pyrido[4,3-d]pyrimidine]",130 nM
7,"CCc1cccc2cc(O)cc(-c3ncc4c(N5C[C@H]6CC[C@@H](C5)N6)ncnc4c3F)c12 [Example 449, 4-(4-((1R,5S)-3,8-diazabicyclo[3.2.1]octan-3-yl)-8-fluoropyrido[4,3-d]pyrimidin-7-yl)-5-ethylnaphthalen-2-ol]",71 nM
8,"CC(Oc1nc(N2C[C@H]3CC[C@@H](C2)N3)c2cnc(-c3cccc4cccc(F)c34)c(F)c2n1)C12CCCN1CCC2 (stereo partly drawn) [Example 450, 4-((1R,5S)-3,8-diazabicyclo[3.2.1]octan-3-yl)-8-fluoro-7-(8-fluoronaphthalen-1-yl)-2-(1-(hexahydro-1H-pyrrolizin-7a-yl)ethoxy)pyrido[4,3-d]pyrimidine]",37 nM
9,"Nc1nc2c(-c3ncc4c(N5C[C@H]6CC[C@@H](C5)N6)nc(OCC56CCCN5CCC6)nc4c3F)cccc2s1 [Example 453, 4-(4-((1R,5S)-3,8-diazabicyclo[3.2.1]octan-3-yl)-8-fluoro-2-((hexahydro-1H-pyrrolizin-7a-yl)methoxy)pyrido[4,3-d]pyrimidin-7-yl)benzo[d]thiazol-2-amine]",27 nM
10,"Fc1c(-c2cccc3scnc23)ncc2c(N3C[C@H]4CC[C@@H](C3)N4)nc(OCC34CCCN3CCC4)nc12 [Example 454, 4-(4-((1R,5S)-3,8-diazabicyclo[3.2.1]octan-3-yl)-8-fluoro-2-((hexahydro-1H-pyrrolizin-7a-yl)methoxy)pyrido[4,3-d]pyrimidin-7-yl)benzo[d]thiazole]",295 nM
11,"Nc1nc2c(-c3ncc4c(N5C[C@H]6CC[C@@H](C5)N6)nc(OCC56CCCN5CCC6)nc4c3F)ccc(F)c2s1 [Example 455, 4-(4-((1R,5S)-3,8-diazabicyclo[3.2.1]octan-3-yl)-8-fluoro-2-((hexahydro-1H-pyrrolizin-7a-yl)methoxy)pyrido[4,3-d]pyrimidin-7-yl)-7-fluorobenzo[d]thiazol-2-amine]",17 nM
12,"Cc1cc2sc(N)nc2c(-c2ncc3c(N4C[C@H]5CC[C@@H](C4)N5)nc(OCC45CCCN4CCC5)nc3c2F)c1C [Example 456, 4-(4-((1R,5S)-3,8-diazabicyclo[3.2.1]octan-3-yl)-8-fluoro-2-((hexahydro-1H-pyrrolizin-7a-yl)methoxy)pyrido[4,3-d]pyrimidin-7-yl)-5,6-dimethylbenzo[d]thiazol-2-amine]",966 nM
13,"Cc1cc2sc(N)nc2c(-c2ncc3c(N4C[C@H]5CC[C@@H](C4)N5)nc(OC[C@@]45CCCN4C[C@H](F)C5)nc3c2F)c1C [Example 457, 4-(4-((1R,5S)-3,8-diazabicyclo[3.2.1]octan-3-yl)-8-fluoro-2-(((2R,7aS)-2-fluorohexahydro-1H-pyrrolizin-7a-yl)methoxy)pyrido[4,3-d]pyrimidin-7-yl)-5,6-dimethylbenzo[d]thiazol-2-amine]",475 nM
14,"Cc1ccc2sc(N)nc2c1-c1ncc2c(N3C[C@H]4CC[C@@H](C3)N4)nc(OCC34CCCN3CCC4)nc2c1F [Example 458, 4-(4-((1R,5S)-3,8-diazabicyclo[3.2.1]octan-3-yl)-8-fluoro-2-((hexahydro-1H-pyrrolizin-7a-yl)methoxy)pyrido[4,3-d]pyrimidin-7-yl)-5-methylbenzo[d]thiazol-2-amine]",143 nM
15,"Fc1ccc2cccc(-c3ncc4c(N5C[C@H]6CC[C@@H](C5)N6)nc(OCC56CCCN5CCC6)nc4c3F)c2c1 [Example 460, 4-((1R,5S)-3,8-diazabicyclo[3.2.1]octan-3-yl)-8-fluoro-7-(7-fluoronaphthalen-1-yl)-2-((hexahydro-1H-pyrrolizin-7a-yl)methoxy)pyrido[4,3-d]pyrimidine]",0.027 nM
16,"Oc1cc(-c2ncc3c(N4CC5CCC(C4)N5)nc(OCCN4C[C@@H]5C[C@H]4CO5)nc3c2F)c2ccccc2c1 [Example 461, 4-(2-(2-((1S,4S)-2-oxa-5-azabicyclo[2.2.1]heptan-5-yl)ethoxy)-4-((1R,5S)-3,8-diazabicyclo[3.2.1]octan-3-yl)-8-fluoropyrido[4,3-d]pyrimidin-7-yl)naphthalen-2-ol]",0.062 nM
17,"O=C1CCC2(COc3nc(N4CC5CCC(C4)N5)c4cnc(-c5cc(O)cc6ccccc56)c(F)c4n3)CCCN12 (stereo not shown) [Example 462, 7a-(((4-(3,8-diazabicyclo[3.2.1]octan-3-yl)-8-fluoro-7-(3-hydroxynaphthalen-1-yl)pyrido[4,3-d]pyrimidin-2-yl)oxy)methyl)tetrahydro-1H-pyrrolizin-3(2H)-one]",0.751 nM
18,"Oc1cc(-c2ncc3c(N4CC5CCC(C4)N5)nc(OCC45CCCCN4CCC5)nc3c2F)c2ccccc2c1 (stereo not shown) [Example 463, 4-(4-(3,8-diazabicyclo[3.2.1]octan-3-yl)-8-fluoro-2-((octahydroindolizin-8a-yl)methoxy)pyrido[4,3-d]pyrimidin-7-yl)naphthalen-2-ol]",0.012 nM
19,"Fc1ccc2cccc(-c3ncc4c(N5C[C@H]6CC[C@@H](C5)N6)nc(OCC56CCCN5CCC6)nc4c3F)c2c1F [Example 464, 4-((1R,5S)-3,8-diazabicyclo[3.2.1]octan-3-yl)-7-(7,8-difluoronaphthalen-1-yl)-8-fluoro-2-((hexahydro-1H-pyrrolizin-7a-yl)methoxy)pyrido[4,3-d]pyrimidine]",0.007 nM
20,"CCc1cccc2cccc(-c3ncc4c(N5C[C@H]6CC[C@@H](C5)N6)nc(OC[C@@]56CCCN5C[C@H](F)C6)nc4c3F)c12 [Example 465, 4-((1R,5S)-3,8-diazabicyclo[3.2.1]octan-3-yl)-7-(8-ethylnaphthalen-1-yl)-8-fluoro-2-(((2R,7aS)-2-fluorohexahydro-1H-pyrrolizin-7a-yl)methoxy)pyrido[4,3-d]pyrimidine]",0.001 nM
21,"CCc1cccc2cccc(-c3ncc4c(N5CC6CCC(C5)N6)nc(OC[C@@]56C[C@H](O)CN5C[C@H](O)C6)nc4c3F)c12 [Example 466, (2R,6S,7as)-7a-(((4-((1R,5S)-3,8-diazabicyclo[3.2.1]octan-3-yl)-7-(8-ethylnaphthalen-1-yl)-8-fluoropyrido[4,3-d]pyrimidin-2-yl)oxy)methyl)hexahydro-1H-pyrrolizine-2,6-diol]",0.006 nM
22,"[2H]C1([2H])CC[C@@]2(C([2H])([2H])Oc3nc(N4C[C@H]5CC[C@@H](C4)N5)c4cnc(-c5cc(O)cc6cccc(CC)c56)c(F)c4n3)C[C@@H](F)CN12 [Example 480, 4-(4-((1R,5S)-3,8-diazabicyclo[3.2.1]octan-3-yl)-8-fluoro-2-(((2R,7aS)-2-fluorotetrahydro-1H-pyrrolizin-7a(5H)-yl-5,5-d2)methoxy-d2)pyrido[4,3-d]pyrimidin-7-yl)-5-ethylnaphthalen-2-ol]",< 0.002 nM
